# Assay results: patent US10662169B2, “Catechol derivative and pharmaceutical composition comprising the same” (AUTOPHAGYSCIENCES INC., priority 2015, dated 2020)
# How the values were obtained:
# [1] = tested on: liver fibrosis induced by carbon tetrachloride; test: Model of liver fibrosis induced by carbon tetrachloride (chronic); format: in vivo, C57BL/6 mice; conditions: for liver fibrosis, Masson's Trichrome staining: CCl4 0.8 ml/kg i.p., FIG. 10
# Procedure: In order to confirm the effect of inhibiting liver fibrosis caused by chronic liver injury, carbon tetrachloride was administered to C57BL/6 mice to induce chronic liver injury, thereby inducing liver fibrosis, and then the compounds according to the present invention were administered. It was then confirmed whether chronic liver injuries were inhibited. Five-week-old female C57BL/6 mice were introduced and acclimated for one week, and then divided into six groups respectively; a normal control group, a group to which carbon tetrachloride was administered, and groups to which the compounds according to the present invention (Examples 1 and 5) were administered. Carbon tetrachloride was dissolved in corn oil and administered intraperitoneally at a dose of 0.8 ml/kg (body weight) twice a day, for a total of 8 days. Twenty-four hours after the final oral administration, an autopsy was performed to remove a sample of liver tissue and fix it, thus preparing a tissue specimen. After preparation of tissue specimen slides, H & E staining was performed, and liver tissue injury as well as inflammatory cell infiltration in liver tissue were confirmed by microscopy. In addition, Masson's Trichrome staining was performed, and collagen deposition in the liver tissue was confirmed by microscope.
# mTOR = mTOR enzyme activity: p-mTOR (Ser 2448) Western immunoblotting in hepatocyte ischemia-reperfusion model; format: cell-based, C57BL/6 mice; conditions: hepatocytes, FIG. 3
# Procedure: Western immunoblotting was performed using the cell-disrupted liquid obtained in Experimental Example 1. The PVDF membrane obtained from electrophoresis and electroblotting was placed in a TBS-tween solution containing an antibody against mTOR or p-mTOR (Ser 2448) proteins (Cell Signaling), allowed to stand at 4° C. for 12 hours, and then labeled with a secondary antibody labeled with HRP (Horseradish Peroxidase, Sigma Co., Cat No. P0889). Then, bands were measured using ECL (Enhanced Chemiluminescence, Thermo Scientific, Cat No. 34080).
# The measurement results are shown in FIG. 3. mTOR is known to be one of the major proteins regulating autophagy. mTOR serves to inhibit autophagy at a quiescent state, whereas phosphorylation at serine 2448-position inhibits the function of mTOR, resulting in activation of autophagy.
# [2] = tested on: liver fibrosis induced by bile duct ligation; test: Model of liver fibrosis induced by bile duct ligation (BDL); format: in vivo, Sprague Dawley (SD) rats; conditions: BDL rats; 12.5, 25 and 50 mg/kg orally once a day for 14 days; FIG. 13
# Procedure: In order to confirm the effect of inhibiting liver fibrosis caused by chronic liver injury, bile duct ligation (BDL) was performed in Sprague Dawley (SD) rats to induce chronic liver injury, thereby inducing liver fibrosis, and then the compounds according to the present invention were administered. It was then confirmed whether chronic liver injuries were inhibited.
# Seven-week-old female SD rats were introduced and acclimated for one week, and then divided into five groups respectively; a control group, a bile duct ligation surgery group, and groups to which the compound according to the present invention (Example 15) was administered at three doses (12.5, 25 and 50 mg/kg body weight). In the control group, the bile duct was not exposed or ligated after laparotomy, and the other groups performed bile duct ligation surgery. One week after bile duct ligation, the compound according to the present invention (Example 1) was dissolved in corn oil and administered orally for each dose once a day for a total of 14 days. […] In addition, a part of the removed liver (10 mg) was decomposed to perform a quantitative experiment of hydroxyproline which is a major component of collagen, and the amount of collagen deposited was quantified, thereby confirming the effects of the compound according to the present invention.
# [3] = tested on: LC3-II in primary hepatocytes; test: Autophagy activation: LC3-II Western immunoblotting in primary hepatocytes, ischemia-reperfusion model; format: cell-based, C57BL/6 mice; conditions: FIG. 1, FIG. 2
# Procedure: Primary hepatocyte was isolated from male C57BL/6 mice by a collagenase perfusion method which is a known method (Gastroenterology 2011, 141, 2188). Survival rate of the isolated cells was measured by trypan blue exclusion method. Autophagy was induced by ischemia-reperfusion method (Gastroenterology 2011, 141, 2188).
# Specifically, in order to induce ischemia, hepatocytes were incubated at 37° C. in Krebs-Ringer-HEPES (KRH0) buffer (pH 6.2) in an anaerobic chamber for 2 hours. The respective hepatocytes were treated with DMSO, the compound prepared in Examples described above, or Rapamycin as a control substance, and then KRH buffer solution at pH 7.4 was treated under aerobic conditions for 1 hour to induce reperfusion. […] The amount of protein was measured with bovine serum albumin as a protein standard using Bio-Rad Protein Assay Kit (Cat No. 500-0002). […] Then, bands were measured using ECL (Enhanced Chemiluminescence, Thermo Scientific, Cat No. 34080). […]
# The amount of LC3-II increased by the compound treatment was quantified by measuring the band density, and then compared with the amount of LC3-II increased by the treatment of Rapamycin used as a control substance, and the comparison values are shown in Table 1.
# [4] = tested on: acute liver injury induced by carbon tetrachloride; test: Model of acute liver injury induced by carbon tetrachloride; format: in vivo, C57BL/6 mice; conditions: 50 mg/kg orally three times every 12 hours, then CCl4 5 mL/kg i.p.; autopsy 24 hours later; FIG. 4
# Procedure: Attempts were made to confirm the inhibitory effect of autophagy activator on liver injury in an animal model of induced liver fibrosis due to acute liver injury. In order to confirm the effect of inhibiting acute liver injury, carbon tetrachloride (CCl4) was administered to C57BL/6 mice to induce acute liver injury, and then the compound according to the present invention was administered. It was then confirmed whether liver injuries were inhibited. Five-week-old female C57BL/6 mice were introduced and acclimated for one week, and then divided into six groups respectively; a normal control group, a group to which carbon tetrachloride was administered, and groups to which the compounds according to the present invention (Examples 1, 2, 5, and 7) were administered. Each of the compounds according to the present invention was dissolved in corn oil and administered orally three times at a dose of 50 mg/kg (body weight) every 12 hours. 30 Minutes after final oral administration, carbon tetrachloride was intraperitoneally administered at a dose of 5 mL/kg (body weight) and then autopsied 24 hours later top remove a sample of liver tissue under autopsy and fix it, thereby preparing a tissue specimen. After preparation of tissue specimen slides, H & E staining was performed and liver injuries were confirmed with a microscope.
# [5] = tested on: liver fibrosis induced by thioacetamide; test: Model of liver fibrosis induced by thioacetamide (TAA); format: in vivo, C57BL/6 mice; conditions: TAA 200 mg/kg i.p. three times a week for 6 weeks; compound 50 mg/kg orally once a day for 8 days; FIG. 7
# Procedure: In order to confirm the effect of inhibiting liver fibrosis caused by chronic liver injury, thioacetamide (TAA) was administered to C57BL/6 mice to induce chronic liver injury, thereby inducing liver fibrosis, and then the compounds according to the present invention were administered. It was then confirmed whether chronic liver injuries were inhibited. Five-week-old female C57BL/6 mice were introduced and acclimated for one week, and then divided into six groups respectively; a normal control group, a group to which thioacetamide was administered, and groups to which the compounds according to the present invention (Examples 2, 5 and 7) were administered. Thioacetamide was dissolved in phosphate-buffered physiological saline and administered intraperitoneally at a dose of 200 mg/kg (body weight) three times a week, for a total of 6 weeks. Three compounds according to the present invention was dissolved in corn oil […] and administered orally at a dose of 50 mg/kg (body weight) once a day for a total of 8 days. Twenty-four hours after the final oral administration, an autopsy was performed to remove a sample of liver tissue and fix it, thus preparing a tissue specimen. After preparation of tissue specimen slides. H & E staining was performed, and liver tissue injury as well as inflammatory cell infiltration in liver tissue were confirmed by microscopy. […]
compound,measurement,setting,value
"COc1ccc(-c2ccc(C(=O)NC(C)C)s2)cc1OC [Example 1, 5-(3,4-dimethoxyphenyl)-N-isopropylthiophene-2-carboxamide]","liver fibrosis, Masson's Trichrome staining",[1],fibrosis was alleviated
same,"collagen deposition, Example 1 compared with Example 5","[1]; CCl4 fibrosis model, Masson's Trichrome staining",collagen deposition was less
same,phosphorylation of mTOR at serine 2448 position,mTOR,significantly inhibited
same,"collagen deposition, quantitative experiment of hydroxyproline in liver tissue",[2],the smaller the collagen deposition
same,"increase in LC3-II (autophagy induction), Western immunoblotting",[3],significant increase in autophagy induction
same,"liver injury, H & E staining",[4],liver injury was clearly recovered
"COc1ccc(-c2ccc(C(=O)Nc3ccccc3)s2)cc1OC [Example 7, 5-(3,4-dimethoxyphenyl)-N-phenylthiophene-2-carboxamide]","liver injury, H & E staining",[4],recovery effect of liver injury was relatively small
"CC(C)CNC(=O)c1ccc(-c2ccc3c(c2)OCO3)s1 [Example 5, 5-(benzo[d][1,3]dioxol-5-yl)-N-isobutylthiophene-2-carboxamide]","liver fibrosis, Masson's Trichrome staining",[1],fibrosis was alleviated
same,"liver fibrosis (collagen deposition), Masson's Trichrome staining",[5],fibrosis was clearly alleviated
same,"increase in LC3-II (autophagy induction), Western immunoblotting",[3],significant increase in autophagy induction
same,"liver injury, H & E staining",[4],liver injury was clearly recovered
"CC(C)NC(=O)c1ccc(-c2ccc3c(c2)OCO3)s1 [Example 2, 5-(benzo[d][1,3]dioxol-5-yl)-N-isopropylthiophene-2-carboxamide]","liver fibrosis (collagen deposition), Masson's Trichrome staining",[5],fibrosis was clearly alleviated
same,"liver injury, H & E staining",[4],recovery effect of liver injury was relatively small
